Source: patent US20060073099A1, “Treatment screening methods” (priority 2004, published 2006)

Test system: Macaca mulatta (Rhesus monkey) exposed to a 6 Gy dose of γ-radiation (LD50/30)
Experimental: Treatment of whole body lethal radiation and characterization of mortality surrogate markers. Two groups of 10 Macaca mulatta (Rhesus monkey) were exposed to a 6 Gy dose of γ-radiation from a ^60Co source. This dose is an LD50/30 dose for this species. […] The animals in each group were treated once per day for 5 consecutive days beginning on the day the animals were exposed to radiation. The animals consisted of 12 males and 8 females with a body weight range of about 2.5-5.5 kg at the onset of treatment. The age range was 1.75-5.0 years at the onset of treatment.
Twelve male and eight female rhesus monkeys were assigned to the study. Each group comprised of seven male and three female animals. During the acclimation period, animals were assigned to their respective dose groups by randomization based on the absolute neutrophil count. The average of 3 pretreatment absolute neutrophil counts were used for each animal.
The test article (100 mg/mL AED) and vehicle or control article in aliquots of 10 mL. Test article was an aqueous suspension in vehicle. The vehicle article consists of a solution of sodium shloride (0.9% w/v), carboxymethylcellulose (0.5% w/v), polysorbate 80 (2% v/v), benzalkonium chloride (0.02% v/v) and sodium phosphate (10 mM, pH 6.5). Immediately prior to drawing into a syringe, the test article formulation was briefly vortexed to uniformly distribute sedimented test article. Once drawn into a syringe, the test article was administered within 10 minutes. Just prior to injection, the syringe containing the test article was rotated end-over-end to uniformly disperse the compound.
Whole body radiation. The animals were exposed to ionizing as follows. Dosimetry measurements using phantoms, the dose rate and duration of irradiation and the actual time of irradiation for each individual animal was recorded. Animals were fasted overnight prior to whole-body irradiation and fed upon return to the housing facility.
The animals received a midline treatment dose of 600 cGy. The dose rate of the ^60Co gamma source was about 60 cGy per minute and the actual rate was recorded for each animal. To obtain a homogenous dose distribution, the radiation treatment was divided in two parts. First, the animal received half of the dose by anteroposterior irradiation. The second half of the dose was delivered by posteroanterior irradiation. […] The radiation dose was calibrated using an acrylic phantom placed in the same experimental set up that was used for animal irradiation.

SMILES: C[C@]12CC[C@H]3[C@@H](CC=C4C[C@@H](O)CC[C@@]43C)[C@@H]1CC[C@@H]2O [3β,17β-dihydroxyandrost-5-ene]
- animals survived (600 cGy 60Co whole body γ-irradiation, 15 mg/kg i.m. once per day for 5 consecutive days, first injection 2-3 hours after irradiation, 10 animals, observed to day 40-41): 9 of 10
- days of severe thrombocytopenia (less than 20,000 platelets/μL) experienced collectively by the group (600 cGy whole body irradiation, 15 mg/kg i.m. daily x5, 10 animals, p=0.009 by exact test of homogeneity vs vehicle (51 days)): 32 days
- median days of febrile severe neutropenia (600 cGy whole body irradiation, 15 mg/kg i.m. daily x5, 95% CI 0,2, p=0.037 by exact log rank test vs vehicle (median 5 days)): 0 days
- Mortality (600 cGy whole body irradiation, 15 mg/kg i.m. daily x5, Fisher's exact test mid p=0.073 vs two combined control groups (45% mortality)): 10%
- survivors having febrile severe neutropenia (core body temperature >40.4° C. and absolute neutrophil count less than 500 cells/μL) at some time during the protocol (600 cGy whole body irradiation, 15 mg/kg i.m. daily x5, the one non-survivor did not have the condition): 2 animals
